What all share (assay type): in vivo, rat
One experiment concerns diabetic rats. Briefly: Tactile allodynia (von Frey) in diabetic rats (DN). Conditions: for neuropathic pain in diabetic rats: subcutaneous and/or oral delivery routes; for established neuropathic pain state in diabetic rats: Study 2, 10 mg/kg sc for 14 consecutive days. As to the method: The effects of compounds 150, 155, 157 and 158 on neuropathic pain responses characterized by tactile allodynia in diabetic rats were examined. A blinded reversal interventional paradigm was applied to evaluate the compounds, with therapy initiated when an aberrant pain state was clearly established. The effects of single or repeat (5 or two days per week) dosing regimen were assessed as described.
Rats (female Sprague Dawley; 250-270 g) were rendered diabetic with the commercially available agent streptozotocin and, were compared to vehicle-treated age matched controls, maintained for up to 6 weeks or more. Standard physiologic parameters (body weight and blood glucose) were recorded before, during and after the study to assess the metabolic status of animals.
Study 1: Both normal and diabetic groups were divided into two groups of 12 and received either vehicle or Compound 150 in 20% HPCD (10 mg/kg, sc) 5 days per week, for two weeks. Standard indices of sensory nerve function (tactile response threshold) were measured at baseline, prior to drug treatments, 48 hours after the 5th dose, and again prior to sacrifice (after the 10th dose) along with the standard physiologic parameters of body weight and plasma glucose.
Study 2: As per Study 1, except animals were treated with either compound 157 or 158 in 20% HPCD (10 mg/kg, sc) for 14 consecutive days.
Study 3: After 1 month of diabetes rats were treated subcutaneously with a single administration of 150, 155, 157, 154, 158 or 160 in 20% HPCD, as indicated; orally by gavage with a single administration of 157, or for 5 consecutive days by oral gavage with 157 and 158 to assess cumulative effects. The effect of the compounds was assessed 6 hours after the single or final administration.
Detailed methods for performing the behavioral tasks can be found in Journal of Neuroscience Methods (1994), 53: 55-63 and Methods in Molecular Medicine, Volume 99: Pain Research: methods and protocols, edited by Z. D. Luo, Humana Press Inc., Totowa, N.J.

The test system of experiment [1] is STZ treated diabetic rats. Briefly: Sensory nerve conduction velocity (SNCV) in STZ diabetic rats, reversal paradigm, 2 months treatment. From the text:
(§1) The effects of Compound 150 on nerve conduction (both motor and sensory) and axonal atrophy were examined in diabetic rats. A blinded reversal interventional paradigm was applied to evaluate two related small molecules on established experimental rat diabetic peripheral neuropathy of 2 months duration given over a subsequent 2 months, specifically evaluating motor and sensory conduction and sural axon caliber.
(§2) Male Sprague-Dawley rats (200-300 g) raised on sawdust covered plastic cages in a room with normal light dark timing and fed with standard rat chow were used for this experiment. The protocol was reviewed and approved by the University of Calgary Animal Care Committee adhering to the guidelines of the Canadian Council on Animal Care (CCAC). Diabetes was induced by a single intraperitoneal injection of streptozotocin (STZ) in citrate buffer (65 mg/kg) with age-matched controls given the buffer without STZ. Animals were used for the study if fasting glucose levels 5-7 days later were ≧16.0 mmol/L (One Touch FasTake strips, Johnson and Johnson).
(§3) Treatments were applied after 2 months of hyperglycemia for a duration of 2 months. Motor conduction recordings (1-3) were made prior to intervention then after […]. Sensory conduction utilized the approach of Parry and Kozu involving stimulation of the digital branches of the sciatic nerve and recording from the sciatic nerve at the level of the popliteal fossa with near nerve temperature maintained at 37° C. (4).
(§4) For statistical analysis, we studied mean values with standard errors of the means and compared values in the interventional groups with one way ANOVA or repeated measures ANOVA and post hoc Student's t-tests.

The test system of experiment [2] is STZ treated diabetic rats. Briefly: Motor nerve conduction velocity (MNCV) in STZ diabetic rats, reversal paradigm, 2 months treatment.
Description: as §1, §2, §3, §4

Experiment [3] relates to STZ treated diabetic rats. Briefly: Sural nerve myelinated axon morphometry in STZ diabetic rats. Conditions: 5 of 7 days, 2 months of treatment. Here is the method:
as §2
At endpoint (4 months of diabetes, 2 months of treatment) the rats were euthanized and sural nerves harvested for morphometric studies. Sural nerves were fixed in cacodylate buffered glutaraldehyde, dehydrated with alcohols, fixed in osmium tetroxide then embedded in epon to generate one micron sections, as in previous work (5,6). Sections were photographed under oil immersion (1000×) to sample the entire sural nerve. Images were analyzed using Scion image offline to measure axon area for 100 myelinated axons for each sural nerve fascicle. […] For sural nerves with more than one fascicle, each fascicle underwent separate analysis and a mean axon area was calculated for the rat from the fascicles. […]

Experiment [4] relates to Complete Freund's Adjuvant (CFA) model of hyperalgesia in rats. Briefly: CFA-induced tactile hyperalgesia in rats. Conditions: for activity in CFA model of hyperalgesia: subcutaneous and/or oral delivery. From the text:
Complete Freund's Adjuvant (CFA) was used to induce an inflammatory response, resulting in hyperalgesia. This model was chosen as a second experimental paradigm to obtain direct evidence for activity of the compounds against pain states because of its link with the induction of aberrant JNK phosphorylation, and evidence that this signaling cascade appears to, at least in part, mediate the pain response in this model (Doya et al., 2005).
Female Sprague Dawley rats were given either vehicle or Compound 150 (10 mg/kg, sc), 155 (1-10 mg/kg, sc), 157 (1-10 mg/kg, sc; 10-40 mg/kg, po) or 158 (10 mg/kg, sc) 6 hours prior to pain testing (compounds 150, 155, 157, and 158 were dissolved in 20% HPCD at 1-10 mg/mL). Compound 157 was also tested under conditions of repeat dosing where it was given at 5-20 mg/kg, po for five consecutive days. Under all treatment conditions, a single injection of CFA (50 uL) was given into the plantar surface of the right hind paw 1 hour prior to pain testing (i.e., 5 hours after the final administration of compound). Immediately after the CFA injection, animals were placed in testing chambers with a wire mesh bottom to habituate. Standard von Frey filaments were used to assess tactile response thresholds. The left, un-injected paw served as a control. Fibers were applied in the manner described by Dixon (1980) using the up-down method. The 50% withdrawal threshold (in grams) was determined for each paw.

Setting [5] is: sc, acute single, 6 hours after administration.
The mark [6] stands for this setting: po, 5 d loading (5 consecutive days).
Setting [7] is: po, 5 d loading (repeated dosing).

For `O=S(=O)([N-][Na+])c1nn2cc(-c3ccc(-c4cccc(C(F)(F)F)c4)cc3)nc2s1` [Compound 150], in the experiment on diabetic rats (Study 1, diabetic rats, 10 mg/kg sc 5 days per week for two weeks), the “response to tactile stimulation with multiple dosing” value was “consistently responding within the normal range”. Further, the “tactile allodynia six hours after the initial treatment” value in the experiment with diabetic rats (Study 1, diabetic rats, 10 mg/kg sc in 20% HPCD) is listed as “tactile allodynia was reversed”. In addition, the “DN, effective dose” value in the experiment with diabetic rats (sc, acute single) was 10 mg/kg. Further, the “DN (effect on tactile allodynia in diabetic rats)” value in the experiment on diabetic rats (setting [5]) was “Effects of single administrations were observed and +ve”. Moreover, the “SNCV v vehicle treated diabetics at 2 months” value is “significantly better than vehicle treated diabetics” in experiment [1] (5 days/week) and “did not afford similar protection” in experiment [1] (twice per week). The “SNCV change from baseline to 2 months (within diabetic groups)” value in experiment [1] (diabetic rats, 2 months of treatment) was “did not significantly change from baseline”. Besides, the “SNCV, diabetics v normals after 2 months of treatment” value is given as “did not confer similar protection” in experiment [1] (dosed 2 days per week) and “not significantly different from normals” in experiment [1] (dosed 5 days per week). The “MNCV v vehicle treated diabetics at 2 months” value in experiment [2] (2×/week) and in experiment [2] (5 days per week) was “significantly better than vehicle treated diabetics” in each case. Moreover, the “MNCV change from baseline to 2 months (within diabetic groups)” value in experiment [2] (2 days per week) is listed as “identical effects as the drug given 5 days per week”; in experiment [2] (5 days per week), “significant improvement in MNCV”. Also, the “MNCV, diabetics v normals” value in experiment [2] (2 days per week) and in experiment [2] (5 days per week) was “did not restore MNCV to normal” in each case. For the same molecule, in experiment [3], the “mean area of all measured sural myelinated axons, diabetics given compound vs. vehicle” value is “rise in mean axonal area”. Also, in experiment [3], the “mean axonal area of large (greater than 9 microns squared) myelinated axons, diabetics given compound vs. vehicle” value is listed as “significant increase in mean axonal area”. Also, in experiment [4] (sc, acute single), the “CFA (effect on tactile hyperalgesia)” value is “attenuated CFA-induced tactile hyperalgesia and +ve”. Also, the “activity in CFA model of hyperalgesia” value in experiment [4] is recorded as “active”.

Consider `O=S(=O)([N-][Na+])c1nn2cc(-c3ccc(Cl)c(Cl)c3Cl)nc2s1` [Compound 154], for which, in the experiment with diabetic rats (setting [5]), the “DN (effect on tactile allodynia in diabetic rats)” value is “Effects of single administrations were observed and +ve”. In addition, the “neuropathic pain in diabetic rats” value with diabetic rats is “can reverse neuropathic pain”.

On to `O=S(=O)([N-][Na+])c1nn2cc(-c3ccc4c(c3)OCCCO4)nc2s1` [Compound 155], for which the “DN, effective dose” value in the experiment on diabetic rats (sc, acute single) is not above 10 mg/kg. For the same molecule, the “DN (effect on tactile allodynia in diabetic rats)” value in the experiment on diabetic rats (setting [5]) was “Effects of single administrations were observed and +ve”. Further, the “neuropathic pain in diabetic rats” value with diabetic rats is recorded as “can reverse neuropathic pain”. For the same molecule, in experiment [4] (sc, acute single), the “CFA (effect on tactile hyperalgesia)” value was “attenuated CFA-induced tactile hyperalgesia and +ve”. For the same molecule, the “activity in CFA model of hyperalgesia” value in experiment [4] is reported as “active”.

With `COCCOCCOc1ccc(-c2cn3nc(S(=O)(=O)[N-][Na+])sc3n2)cc1` [Compound 157], the “established neuropathic pain state in diabetic rats” value with diabetic rats is “reversed an established neuropathic pain state”. In the experiment on diabetic rats (diabetic rats, single administration), the “duration of effect on pain after a single administration” value was 24 h. Besides, the “DN, effective dose” value in the experiment with diabetic rats (po, 5 d loading) is 5 to 10 mg; in the experiment with diabetic rats (setting [7]), 5 to 10 mg/kg; with diabetic rats (po, acute single), 10 to 20 mg/kg; in the experiment with diabetic rats (sc, acute single) it was less than 10 mg/kg. Further, the “DN (effect on tactile allodynia in diabetic rats)” value with diabetic rats (setting [6]) was “equivalent efficacy was observed and +ve”; in the experiment with diabetic rats (po, acute single, 6 hours after administration) it was “Effects of single administrations were observed and +ve”; in the experiment on diabetic rats (setting [5]), “Effects of single administrations were observed”. Moreover, the “neuropathic pain in diabetic rats” value with diabetic rats is given as “can reverse neuropathic pain”. The “CFA (effect on tactile hyperalgesia)” value in experiment [4] (po, 5 d loading) is “+ve”; in experiment [4] (po, acute single) it was “efficacious and +ve”; in experiment [4] (sc, acute single) it was “attenuated CFA-induced tactile hyperalgesia and +ve”. For the same molecule, the “CFA, effective dose” value in experiment [4] (po, 5 d loading) lay in the range of 5 to 10 mg; in experiment [4] (po, acute single), 20 to 40 mg/kg. Further, the “CFA, required dose range” value in experiment [4] (po, daily dosing for 5 consecutive days) was 5 to 10 mg/kg. The “activity in CFA model of hyperalgesia” value in experiment [4] is listed as “active”.

With `CC(C)(C)c1ccc(-c2cn3nc(S(=O)(=O)[N-][Na+])sc3n2)cc1` [Compound 158], in the experiment with diabetic rats, the “established neuropathic pain state in diabetic rats” value is on record as “reversed an established neuropathic pain state” and the “neuropathic pain in diabetic rats” value is reported as “can reverse neuropathic pain”. For the same molecule, the “DN (effect on tactile allodynia in diabetic rats)” value in the experiment on diabetic rats (setting [6]) was “equivalent efficacy was observed and +ve”. Besides, the “DN, effective dose” value with diabetic rats (setting [7]) was 5 to 10 mg/kg. For the same molecule, the “DN, effective dose” value in the experiment with diabetic rats (sc, acute single) is not above 10 mg/kg. Moreover, the “DN (effect on tactile allodynia in diabetic rats)” value in the experiment with diabetic rats (setting [5]) is “Effects of single administrations were observed and +ve”. Moreover, in experiment [4] (sc, acute single), the “CFA (effect on tactile hyperalgesia)” value is “attenuated CFA-induced tactile hyperalgesia and +ve”; the “CFA, effective dose” value is on record as not above 10 mg/kg. In addition, in experiment [4], the “activity in CFA model of hyperalgesia” value was “active”.

On to `O=S(=O)([N-][Na+])c1nn2cc(-c3cc(C(F)(F)F)ccc3Cl)nc2s1` [Compound 160], for which, in the experiment on diabetic rats (sc, acute single), the “DN, effective dose” value turned out to be 10 mg/kg. Moreover, in the experiment with diabetic rats (setting [5]), the “DN (effect on tactile allodynia in diabetic rats)” value is “Effects of single administrations were observed and +ve”. Also, in the experiment with diabetic rats, the “neuropathic pain in diabetic rats” value is “can reverse neuropathic pain”.

The values are drawn from patent US20090170845A1, “USE OF IMIDAZO[2,1-b]-1,3,4-THIADIAZOLE-2-SULFONAMIDE COMPOUNDS TO TREAT NEUROPATHIC PAIN” (AEGERA THERAPEUTICS INC., priority 2006, published 2009).
